Assay results reported in patent US11221326B2 (TOPPAN PRINTING CO., LTD., priority 2016, dated 2022).

Tested on: human lung cancer cell line NCI-H1975
Assay: Drug sensitivity by viable count analysis (CNT %), NCI-H1975 cells cultured with exosomes (Example 3)
Assay type: cell-based
Conditions: Gefitinib 10 μM, 72 hours
Procedure: As a cell culture vessel, a Transwell cell culture insert (#3470 manufactured by Corning Incorporated) was used. The culture medium used was D-MEM (043-30085 manufactured by Wako Pure Chemical Corporation) containing 10 vol/vol % of bovine serum (EXO-FBS-50A-1 manufactured by System Biosciences, LLC), and 1 vol/vol % of penicillin-streptomycin (168-23191 manufactured by Wako Pure Chemical Corporation).
Drugs were each assessed three times using a final concentration of 10 μM of Gefitinib.
As exosomes derived from drug resistant cell line, ones recovered from the culture supernatant of human lung cancer cell line A549 (ATCC No.: CCL-185)) by ultracentrifugation were used. Assessments were conducted with respect to two conditions of 0 exosomes (no addition of the exosomes derived from the drug resistant cell line), and 1×10^9 exosomes.
In viable count analysis, drug sensitivity was assessed, as in Example 1, by using a trypan blue solution and by counting cells in the fluorescence mode of a cell counter (Countess II) manufactured by Life Technologies Inc. In the drug sensitivity assessment,CNT(cell viability)%=(viable count with addition of drug)/(viable count with addition of no drug)×100(%) was used as an assessment value.
As a reference, cells with an addition of 1×10^9 exosomes derived from the serum of a healthy person were also assessed.
(1) 2×10^4 NCI-H1975 cells were seeded in a Transwell cell culture insert.
(2) An appropriate amount of culture medium was added to the Transwell cell culture insert, followed by culturing in a CO2 incubator (37° C., 5% CO2) for 24 hours.
(1) An appropriate amount of culture medium was mixed with exosomes to prepare exosome medium solutions containing 0 exosomes (no addition of exosomes derived from a drug resistant cell line) and 1×10^9 exosomes.
(2) Each solution was added to the Transwell cell culture insert, followed by culturing in a CO2 incubator (37° C., 5% CO2) for 24 hours.
(1) An appropriate amount of the culture medium was mixed with a drug so as to have a final concentration of […]. […]

COc1cc2ncnc(Nc3ccc(F)c(Cl)c3)c2cc1OCCCN1CCOCC1 [Gefitinib]
CNT (%) Average value (0 exosomes): 59.9%
CNT (%) Average value (1 × 10^9 exosomes derived from A549): 89.2%
CNT (%) Average value (1 × 10^9 exosomes derived from serum of healthy person): 57.7%
